The results in this text go back to PMC8315078, “Molecular imaging of fibroblast activation protein after myocardial infarction using the novel radiotracer [^68Ga]MHLL1” (Theranostics, 2021).

Test [1] concerns the target T1, fibroblast activation protein (human FAP, hFAP) (Homo sapiens, UniProt Q12884).
T1 sequence (Q12884 1-760): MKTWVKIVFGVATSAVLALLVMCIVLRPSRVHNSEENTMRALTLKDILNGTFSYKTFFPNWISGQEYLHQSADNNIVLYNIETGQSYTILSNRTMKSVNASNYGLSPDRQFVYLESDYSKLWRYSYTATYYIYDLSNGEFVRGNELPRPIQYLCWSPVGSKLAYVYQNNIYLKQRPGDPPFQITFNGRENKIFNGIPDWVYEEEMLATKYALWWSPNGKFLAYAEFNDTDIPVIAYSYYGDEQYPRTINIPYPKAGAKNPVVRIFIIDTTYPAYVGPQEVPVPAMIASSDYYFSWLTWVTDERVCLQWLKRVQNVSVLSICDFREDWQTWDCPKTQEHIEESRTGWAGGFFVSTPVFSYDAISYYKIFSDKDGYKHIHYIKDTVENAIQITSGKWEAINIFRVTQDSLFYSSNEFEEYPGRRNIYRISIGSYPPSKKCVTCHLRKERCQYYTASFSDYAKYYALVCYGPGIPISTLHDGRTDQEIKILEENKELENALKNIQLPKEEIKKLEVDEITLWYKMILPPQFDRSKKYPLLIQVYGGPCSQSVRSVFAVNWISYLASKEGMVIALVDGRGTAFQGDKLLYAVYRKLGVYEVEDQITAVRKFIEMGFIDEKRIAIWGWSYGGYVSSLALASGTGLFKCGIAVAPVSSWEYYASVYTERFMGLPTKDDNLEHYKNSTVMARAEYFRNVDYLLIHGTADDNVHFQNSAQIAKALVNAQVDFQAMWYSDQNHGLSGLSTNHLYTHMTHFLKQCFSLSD
The test can be described thus: displacement of […]MHLL1 by cold compound in hFAP-transfected HT1080 cells (internalized activity); wild-type cells negative. It counts as cell-based.

Test [2] deals with fibroblast activation protein (murine FAP, mFAP) (Mus musculus, UniProt P97321).
fibroblast activation protein (murine FAP, mFAP), sequence (P97321 whole entry): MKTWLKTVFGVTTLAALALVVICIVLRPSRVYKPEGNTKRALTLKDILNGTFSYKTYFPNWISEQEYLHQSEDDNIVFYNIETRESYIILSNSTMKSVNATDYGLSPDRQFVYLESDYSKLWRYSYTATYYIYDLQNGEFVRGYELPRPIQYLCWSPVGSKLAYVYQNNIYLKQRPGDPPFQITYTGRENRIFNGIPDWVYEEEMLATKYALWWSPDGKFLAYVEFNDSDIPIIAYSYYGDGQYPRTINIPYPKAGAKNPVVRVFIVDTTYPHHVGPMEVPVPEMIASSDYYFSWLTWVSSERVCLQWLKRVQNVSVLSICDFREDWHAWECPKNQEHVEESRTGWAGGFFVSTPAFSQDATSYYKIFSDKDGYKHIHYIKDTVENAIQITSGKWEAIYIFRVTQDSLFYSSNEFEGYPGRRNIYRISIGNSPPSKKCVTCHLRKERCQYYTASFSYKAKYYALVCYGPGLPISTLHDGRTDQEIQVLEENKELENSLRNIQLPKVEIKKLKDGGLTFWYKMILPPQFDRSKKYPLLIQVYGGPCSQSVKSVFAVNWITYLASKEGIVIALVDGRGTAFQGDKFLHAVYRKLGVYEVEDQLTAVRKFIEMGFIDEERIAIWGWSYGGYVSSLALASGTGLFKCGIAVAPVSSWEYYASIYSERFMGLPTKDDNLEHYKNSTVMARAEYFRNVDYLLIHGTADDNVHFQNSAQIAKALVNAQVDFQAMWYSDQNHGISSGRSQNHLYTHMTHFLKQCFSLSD

For the compound `N#C[C@@H]1CCCN1C(=O)CNC(=S)Nc1ccc(CNC(=O)CCC2C(=O)[O][Ga]3[O]C(=O)CN4CCN(CCN2CC4)CC(=O)[O]3)cc1` (stereo partly drawn) [[^natGa]MHLL1, [^68Ga]Ga-2,2'-(7-(1-carboxy-4-((4-(3-(2-((S)-2-cyano-pyrrolidin-1-yl)-2-oxoethyl)thioureido)benzyl)amino)-4-oxobutyl)-1,4,7-triazonane-1,4-diyl)diacetic acid], the values for the IC50 in test [1] and in test [2] were 212 nM and 142 nM, respectively.

The IC50 is the concentration that gives 50% inhibition. The low end stands for inhibition by little substance, the high end for a need for much substance.
